Source: article PMC12040169 (PLOS Biology, 2025)

Assay: in vitro
Conditions: human, hela cells, % viability

| Structure (SMILES) | viability at 28.5 h, 10 µM [%] |
| --- | --- |
| CCCN(C(=O)C1CC1)c1nc2c(s1)CCc1c-2cnn1C [CBK281930] | 88.8 |
| CN(C(=O)C1CCC1)c1nc2c(s1)CCc1c-2cnn1C [CBK281931] | 75.9 |
| Cc1cc2c(o1)CCc1sc(N(C)C(=O)C3CCCO3)nc1-2 (stereo not drawn) [CBK281932] | 80.3 |
| O=c1[nH]c2ccccc2cc1CNc1ccc(F)cc1F [CBK281933] | 84.1 |
| COc1ccc2cc(CNc3ccc(F)c(F)c3)c(=O)[nH]c2c1 [CBK281934] | 83 |
| Cc1ccc2[nH]c(=O)c(CNc3ccc4[nH]ncc4c3)cc2c1 [CBK281936] | 73 |
| O=C(CN1CCC(O)(c2ccccc2F)CC1)N1CCCCC1 [CBK281938] | 103 |
| Cc1cc2cc3c(nc2cc1C)OCCNC3 [CBK281939] | 97.1 |
| Cc1ccc2nc3c(cc2c1)CNCC(C)O3 (stereo not drawn) [CBK281941] | 85.9 |
| O=C(CN1C2CCC1CC(O)(c1ccccc1F)C2)NCC1CC1 (stereo not drawn) [CBK281942] | 93.4 |
| O=C(C1CC1)N1CCCC(c2nc(-c3cccs3)no2)C1 (stereo not drawn) [CBK281944] | 97.1 |
| O=C1NC2(CCCCC2)C(=O)N1c1ccc(F)cc1F [CBK281945] | 111 |
| OC1(c2ccc(F)cc2)CC2CCC(C1)N2 (stereo not drawn) [CBK281947] | 89.7 |
| Cc1cc(C2CCCCCN2Cc2cc(Cl)ccc2O)on1 (stereo not drawn) [CBK281948] | 89.2 |
| CC1CC(C)CN(CCCNC(=O)c2cc(-c3cccs3)no2)C1 (stereo not drawn) [CBK281949] | 93 |
| Cn1cc(C(=O)NCC(c2ccccc2F)N2CCCC2)ccc1=O (stereo not drawn) [CBK281950] | 83.9 |
| Cc1nccn1CCC1CCN(C(=O)c2cnn(C)c2)CC1 [CBK281951] | 89.3 |
| CC(=O)N1CCC(C(=O)NCCc2cccc(C)c2)C1 (stereo not drawn) [CBK281952] | 110 |
| Cc1cc(CN(C)Cc2ccc(N3CCCC3)c(F)c2)n[nH]1 [CBK281953] | 104 |
| Cc1nccn1CCC(=O)NCCc1ccc(N(C)C)cc1 [CBK281954] | 82.6 |
| CCN1CCC(CC(=O)N2CCC(c3ccccc3)C2)CC1 (stereo not drawn) [CBK281958] | 79.5 |
| Cc1noc(C)c1CC(=O)N1CCC(c2ccccc2)C1 (stereo not drawn) [CBK281959] | 102 |
| CCN1CCc2cc(CN3CCCC(Cn4ccnc4C)C3)ccc21 (stereo not drawn) [CBK281965] | 96.9 |

| Structure (SMILES) | viability at 28.5 h, 10 µM [%] |
| --- | --- |
| CN(CCc1ccccn1)C(=O)C1CN(C(=O)C2CC23CCC3)C1 (stereo not drawn) [CBK281969] | 104 |
| O=C(CN1CCCC1Cn1cccn1)N1CCCc2ccccc21 (stereo not drawn) [CBK281971] | 89 |
| Cc1ccc(C(C)(C)C(=O)N2CCC(CC(=O)N(C)C)CC2)cc1 [CBK281973] | 99.8 |
| Cc1nccn1CC1CCCN(Cc2nc3ccccc3n2C)C1 (stereo not drawn) [CBK281975] | 110 |
| Cc1cc(C)n(C2CCN(Cc3ccc(-n4ccnc4C)cc3)CC2)n1 [CBK281976] | 112 |
| Cc1nccn1CCNC(=O)CC1C(=O)N(C)c2ccccc21 (stereo not drawn) [CBK281977] | 101 |
| CC(C)(C)NC(=O)Cn1cncc1-c1[nH]c2ccccc2c1Cl [CBK281981] | 105 |
| Cc1nc(C(F)(F)F)ccc1C(=O)NCCn1ccnc1C [CBK281982] | 88.9 |
| Cc1nccn1CCNC(=O)Cn1cnc2ccccc21 [CBK281983] | 102 |
| Cc1cc(CN(C)Cc2c(C)nn(-c3ccc(F)cc3)c2C)n[nH]1 [CBK281990] | 95 |
| CN1CCC(C(=O)Nc2cccc(Cn3cccn3)c2)C1 (stereo not drawn) [CBK281991] | 100 |
| CC(CNC(=O)CCc1cn(C)c2ccccc12)N1CCOCC1 (stereo not drawn) [CBK281996] | 87.4 |
| CCn1nc(C)c(-c2cncn2CCCOc2cccc(C)c2)c1C [CBK281997] | 98.2 |
| CCn1nc(C)c(-c2cncn2Cc2ccccc2CN(C)C)c1C [CBK281998] | 88.1 |
| CCCC(=O)NCCn1nc(-c2ccccc2F)cc1CN(C)C [CBK282000] | 111 |
| Cc1cc(N(C)C)cc(C2CCCN(C(=O)C3CCC3)C2)n1 (stereo not drawn) [CBK282004] | 88.7 |
| CC(C)CC(=O)NCCn1nc(-c2ccccc2F)cc1CN(C)C [CBK282005] | 97.4 |
| CN(C)Cc1cc(-c2ccccc2F)nn1CCNC(=O)C1CC1 [CBK282006] | 90.5 |
| CCCC(=O)NCc1ccc(-c2cc(CN(C)C)n(C)n2)cc1 [CBK282007] | 98.4 |
| CN1CC(C(=O)NCC(c2ccccc2)N2CCCCCC2)CC1=O (stereo not drawn) [CBK282008] | 105 |
| Cc1nn(CCNC(=O)C(c2ccc(F)cc2)N(C)C)c(C)c1C (stereo not drawn) [CBK282009] | 89.2 |
| Cc1cc(C)n(C(C)CC(=O)N2CCN(C)CC2c2ccccc2)n1 (stereo not drawn) [CBK282014] | 92.2 |
| CCN1CC(C(=O)N2CCN(C)CC2c2ccccc2)CC1=O (stereo not drawn) [CBK282026] | 92.2 |

| Structure (SMILES) | viability at 28.5 h, 10 µM [%] |
| --- | --- |
| CCN1CC(C(=O)N2CCCC(COc3ccc(F)cc3)C2)CC1=O (stereo not drawn) [CBK282028] | 85.3 |
| CCC(NC(=O)C(C)n1cc(Cl)cn1)c1ccc(OC)cc1 (stereo not drawn) [CBK282029] | 95.3 |
| CN(CC1OCCc2ccccc21)C(=O)CCC1CCCO1 (stereo not drawn) [CBK282030] | 87.1 |
| O=C(CCC1CCCO1)N1CCCC(COc2ccc(F)cc2)C1 (stereo not drawn) [CBK282031] | 97.7 |
| CCc1cc(C(=O)N2CCC(Oc3ccc(F)cc3)CC2)n(C)n1 [CBK282034] | 86.5 |
| COC(C)CN(C)Cc1c(C)[nH]c2ccc(F)cc12 (stereo not drawn) [CBK282035] | 84.5 |
| CCCC(C(=O)NCCN(C)C1CCCCC1)n1nc(C)cc1C (stereo not drawn) [CBK282039] | 96.4 |
| Cc1nccn1CC(C)C(=O)NCCN(C)C1CCCCC1 (stereo not drawn) [CBK282040] | 102 |
| CC(Cn1cc(Cl)cn1)C(=O)NCCN(C)C1CCCCC1 (stereo not drawn) [CBK282041] | 86.1 |
| COc1ccc2c(c1)CCCN2C(=O)Cn1nc(C)cc1C [CBK282042] | 91.5 |
| COC(C)CN(C)C(=O)c1oc2cc(C)ccc2c1C (stereo not drawn) [CBK282043] | 88.1 |
| CCCc1cc(CNC(=O)C(C)n2ccnc2)on1 (stereo not drawn) [CBK282046] | 88.3 |
| CCCc1cc(CNC(=O)c2ccnn2C(C)C)on1 [CBK282047] | 97.4 |
| Cc1cc(C)n(C(C)CNC(=O)C(C)n2ccnc2)n1 (stereo not drawn) [CBK282049] | 109 |
| CC(Cc1cccs1)NC(=O)C(C)n1ccnc1 (stereo not drawn) [CBK282050] | 89.9 |
| c1ccc2oc(CN3CCC(N4CCCCC4)CC3)cc2c1 [CBK282052] | 87.1 |
| CN(C)CCC1CCCCN1C(=O)[C@@H]1C[C@@H]2C=C[C@H]1C2 (stereo partly drawn) [CBK282054] | 89.2 |
| CN(C)CCC1CCCCN1C(=O)C1C2CCCCC21 (stereo not drawn) [CBK282055] | 98.9 |
| CCN1CC(C(=O)N2CCCCC2CN(C)C)CC1=O (stereo not drawn) [CBK282056] | 108 |
| Cc1cc(C(=O)N2CCn3cnnc3C2)c(C2CC2)o1 [CBK282059] | 115 |
| CC(C)(CN1CCCCC1)NC(=O)CCOc1cccc(F)c1 [CBK282060] | 87.2 |
| CN(C)CC1CCCN(C(=O)[C@@H]2C[C@@H]3C=C[C@H]2C3)C1 (stereo partly drawn) [CBK282063] | 98 |
| CCN1CC(C(=O)N2CCCC(CN(C)C)C2)CC1=O (stereo not drawn) [CBK282064] | 106 |
